From patent publication US9944618B2, “Inhibiting neurotransmitter reuptake” (Mayo Foundation for Medical Education and Research, priority 2013, dated 2018)
Where two headings read alike, the source gives them in different places.

Key:
CYP3A4 = CYP3A4 (Homo sapiens (Human), UniProt P08684); assay: Cytochrome P450 inhibition assay, recombinant CYP3A4 (BFC substrate); assay type: in vitro ADME; details: recombinant enzyme
[1] = target: human norepinephrine transporter (Homo sapiens (Human), UniProt P23975); assay: Human NET (norepinephrine transporter) uptake assay; assay type: cell-based; details: read-out: hNET Ki
How it was run: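 HEK293F cells transfected with human NET were thawed, plated at about 60,000 cells/well and held at 37 °C for at least 3 h. Compounds came from 10 mM DMSO stocks, with nomifensine as control, in 1×HBSS/0.02 M HEPES. Uptake was followed with a neurotransmitter transporter dye, dosed as % of vendor reconstitution, in triplicate.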

[2] = target: human serotonin transporter (Homo sapiens (Human), UniProt P31645); assay: Human SERT (serotonin transporter) uptake assay; assay type: cell-based; details: read-out: hSERT Ki
Method: This protocol was designed to measure inhibition of uptake by the human serotonin transporter. […] The Assay Buffer (AB) was […] and 0.02 M HEPES.
(§1) The HEK293F cells were transfected with the human serotonin transporter and frozen in 1 mL aliquots at about 1E+07 cells/mL. On the day of the experiment, the cells were removed from −80° C. or liquid nitrogen and thawed in a room temperature water bath. The cells were dilute to about 1-2E+06 with Freestyle medium. A 1 mL sample (1:2 dilution) was prepared, and the cells were counted. The cells were spun at 1100 rpm for 5 minutes, and the medium was aspirated off. The cells were resuspend in medium at 1.5E+06 cells/mL for about 60,000 cells per well. 40 μL of cells were dispensed per well in the Biocoat plates. The plates were spun at 1100 rpm for 1 minute to improve homogeneity of the cell layer and were incubated at 37° C. for a minimum of 3 hours.
12 μL of test compound (10 mM) in DMSO was added to the wells, and nomifensine was used as a control. Fluoxetine (final assay concentration of 10 μM) was used for background signal. The neurotransmitter transporter dye was prepared in AB prior to use.
Due to the proprietary nature of the dye formulation, all dye concentrations were expressed as a percentage of the vendor-recommended dye reconstitution. Thus, the above calculations were valid when both [dye] and Km were expressed in the same units (%). Compounds were tested in triplicate (n=3).

CYP2D6 = CYP2D6 (Homo sapiens (Human), UniProt P10635); assay: Cytochrome P450 inhibition assay, recombinant CYP2D6 (MAMC substrate); assay type: in vitro ADME; details: recombinant enzyme
Method: Recombinant enzymes, 3A4 and 2D6, generated using the ABL yeast expression system were used. […] The assay mixture also included K2HPO4 (pH 7.4; conc. 0.1 M) and NADPH (conc. 1 mM). The incubation time was 30 minutes, and the reference inhibitor was A-naphthoflavone. For CYP2D6, the enzyme amount was 2 pmol per well, and the substrate (7-methoxy-4-(aminomethyl)-coumarin; MAMC) was used at 20 μM. The assay mixture also included K2HPO4 (pH 7.4; conc. 0.1 M) and NADPH (conc. 0.06 mM). The incubation time was 35 minutes, and the reference inhibitor was quinidine.
Briefly, 0.6 μL of serially diluted compound was added to 75 μL water. 10 μL of diluted compound in water was then added to each assay plate. 20 μL of a K2HPO4, enzyme, and substrate mixture was added. After 10 minutes of room temperature pre-incubation, 10 μL of NADPH was added, and the plates were placed at 37° C. for 30 or 35 minutes depending on the enzyme being tested. After the incubation was complete, 20 μL of 0.1% Tris/ACN was added to the plate. The plate was read on a FluorStar fluorescence plate reader.

[3] = pKa of basic centres (Table 1); assay type: physicochemical
[4] = target: human dopamine transporter (Homo sapiens (Human), UniProt Q01959); assay: Human DAT (dopamine transporter) uptake assay; assay type: cell-based; details: read-out: hDAT Ki
Method: This protocol was designed to measure inhibition of uptake by the human dopamine transporter. […] The Assay Buffer (AB) was 1×HBSS and 0.02 M HEPES.
as §1, with “dopamine” for “serotonin”
12 μL of test compound (10 mM) in DMSO was added to the wells, and nomifensine was used as a control. […] The neurotransmitter transporter dye was prepared in AB prior to use.
Due to the proprietary nature of the dye formulation, all dye concentrations were expressed as a percentage of the vendor-recommended dye reconstitution. Thus, the above calculations were valid when both [dye] and K1 were expressed in the same units (%). Compounds were tested in triplicate (n=3).

[5] = first base, e.g., an aliphatic primary, secondary, or tertiary amine, read-out: pKa (Base 1)
[6] = second base in the same molecule (if present), read-out: pKa (Base 2)

Chain of CYP2D6 (P10635 whole entry): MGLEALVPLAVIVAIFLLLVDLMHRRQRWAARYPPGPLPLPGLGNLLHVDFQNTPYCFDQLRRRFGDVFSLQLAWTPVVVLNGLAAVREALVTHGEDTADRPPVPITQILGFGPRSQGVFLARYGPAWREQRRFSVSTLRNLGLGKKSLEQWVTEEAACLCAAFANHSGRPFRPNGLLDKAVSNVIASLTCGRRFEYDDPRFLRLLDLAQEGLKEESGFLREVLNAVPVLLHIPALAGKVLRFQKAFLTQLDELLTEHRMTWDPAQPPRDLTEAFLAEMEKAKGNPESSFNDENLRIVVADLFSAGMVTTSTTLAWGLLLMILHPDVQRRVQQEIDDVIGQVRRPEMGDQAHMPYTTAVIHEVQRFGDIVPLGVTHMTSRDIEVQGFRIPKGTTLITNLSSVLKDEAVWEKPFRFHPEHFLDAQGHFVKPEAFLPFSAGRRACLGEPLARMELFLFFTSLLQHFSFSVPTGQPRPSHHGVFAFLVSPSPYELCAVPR
Chain of human serotonin transporter (P31645 whole entry): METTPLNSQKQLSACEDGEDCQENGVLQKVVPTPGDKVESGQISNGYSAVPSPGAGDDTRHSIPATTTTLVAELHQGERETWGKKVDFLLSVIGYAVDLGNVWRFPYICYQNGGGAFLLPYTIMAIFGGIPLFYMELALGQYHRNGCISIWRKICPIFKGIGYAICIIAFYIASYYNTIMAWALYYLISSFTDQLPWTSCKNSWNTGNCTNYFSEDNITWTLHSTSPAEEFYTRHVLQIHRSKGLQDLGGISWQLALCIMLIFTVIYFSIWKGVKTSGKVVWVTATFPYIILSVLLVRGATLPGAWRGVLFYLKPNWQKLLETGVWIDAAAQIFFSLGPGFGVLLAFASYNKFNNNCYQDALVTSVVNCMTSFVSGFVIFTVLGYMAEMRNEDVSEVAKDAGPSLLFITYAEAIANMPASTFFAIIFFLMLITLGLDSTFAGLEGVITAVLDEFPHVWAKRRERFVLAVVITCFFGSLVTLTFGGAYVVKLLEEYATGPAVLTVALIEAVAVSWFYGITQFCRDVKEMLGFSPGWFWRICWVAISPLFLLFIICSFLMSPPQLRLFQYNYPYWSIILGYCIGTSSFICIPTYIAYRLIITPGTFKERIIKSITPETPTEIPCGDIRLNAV
Chain of CYP3A4 (P08684 whole entry): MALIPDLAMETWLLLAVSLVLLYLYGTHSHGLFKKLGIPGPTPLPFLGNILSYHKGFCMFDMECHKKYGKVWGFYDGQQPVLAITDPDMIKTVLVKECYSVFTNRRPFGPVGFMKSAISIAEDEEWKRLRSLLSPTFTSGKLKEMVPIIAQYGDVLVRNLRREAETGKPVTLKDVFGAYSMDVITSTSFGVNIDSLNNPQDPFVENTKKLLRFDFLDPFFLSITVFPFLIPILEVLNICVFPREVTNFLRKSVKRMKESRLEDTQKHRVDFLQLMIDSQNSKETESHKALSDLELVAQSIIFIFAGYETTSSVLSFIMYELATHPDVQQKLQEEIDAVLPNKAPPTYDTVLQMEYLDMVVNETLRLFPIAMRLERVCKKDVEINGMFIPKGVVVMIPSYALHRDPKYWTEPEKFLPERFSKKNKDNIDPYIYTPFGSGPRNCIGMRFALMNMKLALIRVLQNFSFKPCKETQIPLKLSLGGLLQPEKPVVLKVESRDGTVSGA
Chain of human norepinephrine transporter (P23975 whole entry): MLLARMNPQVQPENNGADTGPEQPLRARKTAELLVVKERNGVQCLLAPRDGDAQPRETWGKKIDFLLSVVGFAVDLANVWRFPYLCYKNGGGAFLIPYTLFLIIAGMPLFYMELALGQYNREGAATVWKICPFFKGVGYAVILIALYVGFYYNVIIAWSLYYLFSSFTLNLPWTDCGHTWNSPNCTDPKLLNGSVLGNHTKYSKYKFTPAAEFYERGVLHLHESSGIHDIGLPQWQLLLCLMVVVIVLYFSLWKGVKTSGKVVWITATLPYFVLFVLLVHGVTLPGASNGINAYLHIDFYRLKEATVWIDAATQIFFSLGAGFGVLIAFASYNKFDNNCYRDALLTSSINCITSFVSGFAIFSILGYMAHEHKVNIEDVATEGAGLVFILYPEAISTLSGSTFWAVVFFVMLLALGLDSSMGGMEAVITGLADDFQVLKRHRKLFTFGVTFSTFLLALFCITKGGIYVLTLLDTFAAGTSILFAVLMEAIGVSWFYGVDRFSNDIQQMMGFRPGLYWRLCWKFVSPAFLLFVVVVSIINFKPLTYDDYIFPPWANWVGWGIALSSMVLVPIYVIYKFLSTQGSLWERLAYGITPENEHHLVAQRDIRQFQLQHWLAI
Chain of human dopamine transporter (Q01959 whole entry): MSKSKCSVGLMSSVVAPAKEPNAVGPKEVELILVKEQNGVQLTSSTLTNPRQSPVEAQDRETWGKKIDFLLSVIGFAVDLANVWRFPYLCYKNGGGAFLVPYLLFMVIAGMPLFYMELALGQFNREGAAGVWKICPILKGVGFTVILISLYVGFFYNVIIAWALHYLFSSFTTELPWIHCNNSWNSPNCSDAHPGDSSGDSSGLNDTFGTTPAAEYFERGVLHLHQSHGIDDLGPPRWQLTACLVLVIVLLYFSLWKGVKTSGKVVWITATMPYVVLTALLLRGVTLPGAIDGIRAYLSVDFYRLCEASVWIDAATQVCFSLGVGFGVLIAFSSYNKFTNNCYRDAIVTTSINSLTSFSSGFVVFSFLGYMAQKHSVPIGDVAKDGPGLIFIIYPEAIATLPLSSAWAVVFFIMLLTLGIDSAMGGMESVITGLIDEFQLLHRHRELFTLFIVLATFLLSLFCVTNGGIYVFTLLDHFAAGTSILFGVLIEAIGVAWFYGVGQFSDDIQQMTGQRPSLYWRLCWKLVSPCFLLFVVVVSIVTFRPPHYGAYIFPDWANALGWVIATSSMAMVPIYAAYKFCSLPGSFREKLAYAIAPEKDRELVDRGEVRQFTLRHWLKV

| SMILES | IC50 (CYP3A4) [nM] | Ki [1] [nM] | Ki [2] [nM] | IC50 (CYP2D6) [nM] | pKa [3, 5] | pKa [3, 6] | Ki [4] [nM] | pKa (Base 1) ([3]; first base, e.g., an aliphatic primary, secondary, or tertiary amine) | pKa (Base 2) ([3]; second base in the same molecule (if present)) |
| --- | --- | --- | --- | --- | --- | --- | --- | --- | --- |
| CNC[C@@H](c1ccc(Cl)c(Cl)c1)[C@@H](O)c1cncc(OC)c1 [Compound 109] | 20000 | 120 | 646 | 1100 | 9.3 | 4.5 | 66.7 | – | – |
| CNC[C@H](c1ccc(Cl)c(Cl)c1)[C@@H](O)c1ccccc1S(C)(=O)=O [Compound 170] | 4800 | 306 | 2010 | 380 | 9.3 | – | 40 | – | – |
| CNC[C@@H](c1ccc(Cl)c(Cl)c1)[C@@H](O)c1cccc(SC)c1 [Compound 120] | 9000 | 262 | 662 | 2400 | 9.4 | – | 88.5 | – | – |
| NC[C@@H](c1ccc2ccccc2c1)[C@@H](O)c1ccc(Cl)nc1 [Compound 126] | 20000 | 500 | 107 | 3900 | 8.3 | – | 125 | – | – |
| CNC[C@H](c1ccc(Cl)c(Cl)c1)[C@@H](O)c1cccnc1OC [Compound 104] | 270 | 60.6 | 656 | 66 | 9.2 | 3.2 | 94.6 | – | – |
| CNC[C@@H](c1ccc(Cl)c(Cl)c1)[C@@H](O)c1cccc(Br)c1 [Compound 162] | 4900 | 108 | 806 | 790 | 9.4 | – | 110 | – | – |
| CNC[C@H](c1ccc2ccccc2c1)[C@H](O)c1ccc(Cl)s1 (single isomer, unassigned) [Compound 58] | 9600 | 5.1 | 5.9 | 120 | 9.7 | – | 127 | – | – |
| CNC[C@@H](c1ccc(Cl)c(Cl)c1)[C@@H](O)c1ccsc1 [Compound 106] | 20000 | 80.6 | 742 | 3900 | 9.5 | – | 19.7 | – | – |
| CNC[C@H](c1ccc2ccccc2c1)[C@H](O)c1ccncc1 [Compound 12] | 20000 | 1.6 | 2.7 | 880 | 9.6 | 5.4 | 52.6 | – | – |
| CNC[C@H](c1ccc(-c2ccccc2)cc1)[C@H](O)c1ccccc1 (racemic) [Compound 113] | 16000 | 167 | 5.2 | 220 | 9.8 | – | 1570 | – | – |
| NCC(c1ccc2ccccc2c1)C(O)c1ccc(F)cc1F (centres unmarked) [Compound 107] | 19000 | 82.2 | 727 | 2400 | 8.5 | – | 126 | – | – |
| CNC[C@@H](c1ccc(Cl)c(Cl)c1)[C@@H](O)c1cccnc1OC [Compound 171] | 20000 | 454 | 1850 | 2000 | 9.2 | 3.2 | 92 | – | – |
| CNC[C@@H](c1ccc2ccccc2c1)[C@@H](O)c1cccnc1 [Compound 103] | 20000 | 57.6 | 58.6 | 11000 | – | – | 91.9 | 9.6 | 5.1 |
| CNC[C@H](c1ccc(Cl)c(Cl)c1)[C@@H](O)c1cccc(NS(=O)(=O)C(F)(F)F)c1 [Compound 127] | 20000 | 649 | 3280 | 15000 | 9.4 | – | 80.5 | – | – |
